From patent publication US11168102B1, “Bicyclic heteroaryl compounds and uses thereof” (Revolution Medicines, Inc., priority 2019, dated 2021)
Like-named read-outs stand apart in the source and are kept apart here.

System: cellular pERK in PC-9 cells (EGFR Ex19Del)
Assay: Potency assay: pERK (AlphaLISA SureFire Ultra p-ERK1/2) in PC-9 cells
Type: cell-based
Settings: Homo sapiens, PC-9, 1 h, read-out: SOS1 pERK IC50
[1] = PC-9 cells (EGFR Ex19Del), 1 hour incubation, AlphaLISA SureFire Ultra p-ERK1/2

## C[C@@H](Nc1ncnc2c1cc(C1CC[S+]([O-])CC1)c(=O)n2C)c1cccc(C(F)F)c1F (stereo partly drawn) [Example 25, (R)-4-((1-(3-(difluoromethyl)-2-fluorophenyl)ethyl)amino)-8-methyl-6-(1-oxidotetrahydro-2H-thiopyran-4-yl)pyrido[2,3-d]pyrimidin-7(8H)-one]
[1]
  IC50: 122 nM

## Cc1nc(N[C@H](C)c2cccc(C(F)F)c2F)c2cc(C(=O)N3CCOCC3)c(=O)n(C)c2n1 [Example 26, 4-{[(1R)-1-[3-(difluoromethyl)-2-fluorophenyl]ethyl]amino}-2,8-dimethyl-6-(morpholine-4-carbonyl)-7H,8H-pyrido[2,3-d]pyrimidin-7-one]
[1]
  IC50: 388 nM

## C[C@@H](Nc1ncnc2c1cc(C(=O)N1CC3(COC3)C1)c(=O)n2C)c1cccc(C(F)F)c1F [Example 26-4]
[1]
  IC50: 423 nM

## C[C@@H](Nc1ncnc2c1cc(C(=O)N1CC3COCC31)c(=O)n2C)c1cccc(C(F)F)c1F (stereo partly shown) [Example 26-5]
[1]
  IC50: 396 nM

## CCC1(O)CN(C(=O)c2cc3c(N[C@H](C)c4cccc(C(F)F)c4F)ncnc3n(C)c2=O)C1 [Example 26-8]
[1]
  IC50: 252 nM

## C[C@@H](Nc1ncnc2c1cc(C(=O)N(C)c1cccnc1)c(=O)n2C)c1cccc(C(F)F)c1F [Example 26-10]
[1]
  IC50: 2090 nM

## C[C@@H](Nc1ncnc2c1cc(C(=O)N1CC3(CCCO3)C1)c(=O)n2C)c1cccc(C(F)F)c1F [Example 26-13]
[1]
  IC50: 1130 nM

## C[C@@H](Nc1ncnc2c1cc(C(=O)N1CCCC13COC3)c(=O)n2C)c1cccc(C(F)F)c1F [Example 26-14]
[1]
  IC50: 122 nM

## C[C@@H](Nc1ncnc2c1cc(C(=O)N1CC3(CCOC3)C1)c(=O)n2C)c1cccc(C(F)F)c1F [Example 26-15]
[1]
  IC50: 256 nM

## C[C@@H](Nc1ncnc2c1cc(C(=O)N1CC[C@@H]3CO[C@@H]3C1)c(=O)n2C)c1cccc(C(F)F)c1F [Example 26-16]
[1]
  IC50: 729 nM

## C[C@@H](Nc1ncnc2c1cc(C(=O)N1CC[C@@H]3CCO[C@@H]31)c(=O)n2C)c1cccc(C(F)F)c1F [Example 26-17]
[1]
  IC50: 195 nM

## C[C@@H](Nc1ncnc2c1cc(C(=O)N1CC3CCC1CO3)c(=O)n2C)c1cccc(C(F)F)c1F (stereo partly shown) [Example 26-18]
[1]
  IC50: 589 nM

## C[C@@H](Nc1ncnc2c1cc(C(=O)N1CC3CCC(C1)O3)c(=O)n2C)c1cccc(C(F)F)c1F [Example 26-19]
[1]
  IC50: 295 nM

## CC1CN(C(=O)c2cc3c(N[C@H](C)c4cccc(C(F)F)c4F)ncnc3n(C)c2=O)C(C)CO1 (stereo partly shown) [Example 26-23]
[1]
  IC50: 275 nM

## C[C@@H](Nc1ncnc2c1cc(C(=O)N1CCc3cnccc31)c(=O)n2C)c1cccc(C(F)F)c1F [Example 26-27]
[1]
  IC50: 803 nM

## C[C@@H](Nc1ncnc2c1cc(C(=O)N1Cc3cccnc3C1)c(=O)n2C)c1cccc(C(F)F)c1F [Example 26-28]
[1]
  IC50: 766 nM

## C[C@@H](Nc1ncnc2c1cc(C(=O)N1C3CCC1CN(C)C3)c(=O)n2C)c1cccc(C(F)F)c1F [Example 26-32]
[1]
  IC50: 216 nM

## C[C@@H](Nc1ncnc2c1cc(C(=O)N1CC3(CCOCC3)C1)c(=O)n2C)c1cccc(C(F)F)c1F [Example 26-33]
[1]
  IC50: 152 nM

## C[C@@H](Nc1ncnc2c1cc(C(=O)N1CCCC13CCOC3)c(=O)n2C)c1cccc(C(F)F)c1F (stereo partly shown) [Example 26-34]
[1]
  IC50: 122 nM

## C[C@@H](Nc1ncnc2c1cc(C(=O)N1CCOCC13COC3)c(=O)n2C)c1cccc(C(F)F)c1F [Example 26-35]
[1]
  IC50: 193 nM

## COCC1COCCN1C(=O)c1cc2c(N[C@H](C)c3cccc(C(F)F)c3F)ncnc2n(C)c1=O (stereo partly shown) [Example 26-37]
[1]
  IC50: 747 nM

## C[C@@H](Nc1ncnc2c1cc(C(=O)N1CCC[C@@H]1c1nnn[nH]1)c(=O)n2C)c1cccc(C(F)F)c1F [Example 26-39]
[1]
  IC50: > 10000 nM

## CC(=O)N1CC2(C1)CN(C(=O)c1cc3c(N[C@H](C)c4cccc(C(F)F)c4F)ncnc3n(C)c1=O)C2 [Example 26-40]
[1]
  IC50: 453 nM

## C[C@@H](Nc1ncnc2c1cc(C(=O)N1CCCC13CCOCC3)c(=O)n2C)c1cccc(C(F)F)c1F [Example 26-42]
[1]
  IC50: 194 nM

## C[C@@H](Nc1ncnc2c1cc(C(=O)N1CCN3CCOCC3C1)c(=O)n2C)c1cccc(C(F)F)c1F (stereo partly shown) [Example 26-44]
[1]
  IC50: 401 nM

## C[C@@H](Nc1ncnc2c1cc(C(=O)N1CC(N3CC(C)(O)C3)C1)c(=O)n2C)c1cccc(C(F)F)c1F [Example 26-45]
[1]
  IC50: 521 nM

## C[C@@H](Nc1ncnc2c1cc(C(=O)N1CCOC3(CCOC3)C1)c(=O)n2C)c1cccc(C(F)F)c1F (stereo partly shown) [Example 26-46]
[1]
  IC50: 322 nM

## C[C@@H](Nc1ncnc2c1cc(C(=O)N1CCOCC13CCOC3)c(=O)n2C)c1cccc(C(F)F)c1F (stereo partly shown) [Example 26-47]
[1]
  IC50: 585 nM

## COCCN1CCN(C(=O)c2cc3c(N[C@H](C)c4cccc(C(F)F)c4F)ncnc3n(C)c2=O)CC1 [Example 26-48]
[1]
  IC50: 220 nM

## C[C@@H](Nc1ncnc2c1cc(C(=O)N1CCC(O)(C(F)(F)F)CC1)c(=O)n2C)c1cccc(C(F)F)c1F [Example 26-50]
[1]
  IC50: 880 nM

## CC(=O)N1CC2(CCN2C(=O)c2cc3c(N[C@H](C)c4cccc(C(F)F)c4F)ncnc3n(C)c2=O)C1 [Example 26-51]
[1]
  IC50: 445 nM

## C[C@@H](Nc1ncnc2c1cc(C(=O)N1CCC13CS(=O)(=O)C3)c(=O)n2C)c1cccc(C(F)F)c1F [Example 26-52]
[1]
  IC50: 152 nM

## Cc1nc(N[C@H](C)c2cccc(C(F)F)c2F)c2cc(CN3CCOCC3)c(=O)n(C)c2n1 [Example 27, 4-{[(1R)-1-[3-(difluoromethyl)-2-fluorophenyl]ethyl]amino}-2,8-dimethyl-6-[(morpholin-4-yl)meth-yl]-7H,8H-pyrido[2,3-d]pyrimidin-7-one]
[1]
  IC50: 852 nM

## C[C@@H](Nc1ncnc2c1cc(C1(O)CCS(=O)(=O)CC1)c(=O)n2C)c1cccc(C(F)F)c1F [Example 28, 4-(4-{[(1R)-1-[3-(difluoromethyl)-2-fluorophenyl]-ethyl]amino}-8-methyl-7-oxo-7H,8H-pyrido[2,3-d]pyrimidin-6-yl)-4-hydroxy-1λ^6-thiane-1,1-dione]
[1]
  IC50: 93.7 nM

## C[C@@H](Nc1ncnc2c1cc(C1(O)CCN(C)CC1)c(=O)n2C)c1cccc(C(F)F)c1F [Example 28-1]
  IC50: 187 nM

## Cc1nc(N[C@H](C)c2cccc(C(F)F)c2F)c2cc(C3(O)CCN(C)CC3)c(=O)n(C)c2n1 [Example 28-2]
  IC50: 572 nM

## C[C@@H](Nc1ncnc2c1cc(C1(O)CC3(C1)CS(=O)(=O)C3)c(=O)n2C)c1cccc(C(F)F)c1F [Example 28-4]
[1]
  IC50: 83.7 nM

## C[C@@H](Nc1ncnc2c1cc(C1(O)CC3CCC(C1)S3(=O)=O)c(=O)n2C)c1cccc(C(F)F)c1F (stereo partly shown) [Example 28-5]
[1]
  IC50: 157 nM

## C[C@@H](Nc1ncnc2c1cc(C1(O)CS(=O)(=O)C1)c(=O)n2C)c1cccc(C(F)F)c1F [Example 28-7]
[1]
  IC50: 322 nM

## CC(=O)N1CCC(O)(c2cc3c(N[C@H](C)c4cccc(C(F)F)c4F)ncnc3n(C)c2=O)CC1 [Example 28-8]
[1]
  IC50: 32.6 nM

## C[C@@H](Nc1ncnc2c1cc(C1(O)CCN(C(=O)OC(C)(C)C)C1)c(=O)n2C)c1cccc(C(F)F)c1F (stereo partly shown) [Example 28-9]
[1]
  IC50: 369 nM

## C[C@@H](Nc1ncnc2c1cc(C1(F)CCS(=O)(=O)CC1)c(=O)n2C)c1cccc(C(F)F)c1F [Example 29, 4-(4-{[(1R)-1-[3-(difluoromethyl)-2-fluorophenyl]ethyl]amino}-8-methyl-7-oxo-7H,8H-pyrido[2,3-d]-pyrimidin-6-yl)-4-fluoro-1λ^6-thiane-1,1-dione]
[1]
  IC50: 34.6 nM

## C[C@@H](Nc1ncnc2c1cc(C1(F)CN(C)C1)c(=O)n2C)c1cccc(C(F)F)c1F [Example 29-1]
[1]
  IC50: 122 nM
